Patent US20110281852A1 (priority 2010, published 2011)

Key:
[1] = test system: fatty acid synthase (FAS); assay: Real-time RT-PCR, FAS mRNA in 3T3-L1; assay type: cell-based, mouse; conditions: 8 μM berberine + 50 μM risperidone, 8 days
Excerpt: Realtime RT-PCR: Real-time reverse transcriptase polymerase chain reaction (RT-PCR) analysis was used to measure mRNA expression of genes SREBP-1, PPARγ, C/EBPα, low density lipoprotein receptor (LDLR), Adiponectin, and fatty acid synthase (FAS) under the control of β-actin. Briefly, total RNA was isolated from 3T3-L1 cells following treatment for 8 days with Trizol reagent (Invitrogen, Carlsbad, Calif., USA) according to the manufacturer's instruction. RNA was quantified using absorption of light at 260 nm, and sample purity was checked by OD 260 nm/280 nm. 0.8 μg of total RNA from each sample was used for reverse transcription reaction using the TaqMan Reverse Transcription Reagents (Applied Biosystems, Foster City, Calif., USA) according to the manufacturers' instructions. PCR was done using the SYBR green Master Mix (Applied Biosystems, Foster City, Calif., USA) according to the manufacturers' instructions. The temperature cycling conditions of amplification were as follows: an initial step of denaturation at 95° C. for 10 min, 40 cycles of denaturation at 95° C. for 30 s, annealing at 55° C. for 30 s, and elongation at 72° C. for 30 s. Realtime RT-PCR was performed using Mx3000P Realtime Thermocyclers (Statagene, La Jolla, Calif., USA). The relative mRNA levels of these genes were calculated by 2-delta delta CT method and normalized with control groups.

[2] = test system: PPARγ; assay: Real-Time RT-PCR, PPARγ mRNA in epididymal fat of FD mice; assay type: in vivo, mouse
Procedure: RNA and protein purification and quantification from epididymal fat tissues: RNA and protein was isolated from 60 mg of epididymal fat tissues with Trizol (Invitrogen, Carlsbad, Calif., USA) following the protocol recommended by the manufacturers. RNA was dissolved in pure water and quantified at 260/280 nm, and sample integrity was checked by 1.5% agarose gel electrophoresis. Protein concentration was determined using the Micro BCA Protein Assay Kit (Fisher Scientific, Pittsburgh, Pa., USA) according to the manufacturer's instructions.
Quantitative Real-Time RT-PCR: Real-Time reverse transcriptase polymerase chain reaction (RT-PCR) analysis was used to measure mRNA expression of genes PPARγ, C/EBPα, GATA-2 and GATA-3 in the control of β-actin. Total RNA (0.8 μg) from each sample was used for a reverse transcription reaction using the TaqMan Reverse Transcription Reagents (Applied Biosystems, Foster City, Calif., USA) following the manufacturer's instructions. PCR was done using the SYBR green Master Mix (Applied Biosystems, Foster City, Calif., USA) following the manufacturer's instructions. The cycling conditions of amplification were as follows: an initial step of denaturation at 95° C. for 10 min, 40 cycles of denaturation at 95° C. for 30 s, annealing at 55° C. for 30 s, and elongation at 72° C. for 30 s. Real-Time PCR was performed using Mx3000P Real-Time Thermocyclers (Stratagene, La Jolla, Calif., USA). The relative mRNA levels of these genes were calculated by 2-delta delta CT method and normalized with control-treated groups.

[3] = test system: GATA-2; assay: Immunoblot, GATA-2 protein in 3T3-L1 cells; assay type: cell-based, mouse; conditions: DM + 1, 2, 4, 8 μM, 8 days, p<0.05
Procedure: Immunoblot Analysis: GATA-2 and GATA-3 protein expression were assessed by Western blot. […] The cells were washed twice with PBS, lysed in a lysis buffer (HEPES-Tx-PI buffer: 10 mM HEPES, 5 mM EDTA, 350 mM Sucrose, 1 ug/ml leupeptin, 1 ug/ml pepstatin, 1% Triton-X, 1 mM PMSF, diluted in water), processed with a 25G needle and centrifuged at 10,000 rpm for 5 min. Protein concentration was determined using the […] according to the Pierce Protein Assay Protocol. Total protein (50 μg) was used for GATA-2 and GATA-3 analysis and was separated by electrophoresis using BioRad Electrophoretic System (60 V for 1 hour followed by 90 V for 5 hours). The protein was then transferred to nitrocellulose membranes at 35 V overnight. The membrane was blocked for 1 hour at room temperature in 5% nonfat milk in Tris-buffered saline (TBS), then washed with Tween-20-TBS (TTBS, 0.1% Tween-20) three times (15 min, 5 min, 5 min), followed by incubation with primary antibodies of GATA-2 (dilution 1:500), GATA-3 (dilution 1:500), β-Actin (dilution 1:1000) at room temperature for 2 hours. The membrane was rinsed three times (15 min, 5 min, 5 min), then incubated at room temperature for 1 hour with Horseradish peroxidase-conjugated second antibody (1:10,000). The membrane was then incubated in ECL reagent for 1 minute. Protein was visualized using UVP image analysis system.

[4] = test system: PPARγ; assay: Immunoblotting, PPARγ protein in 3T3-L1; assay type: cell-based, mouse; conditions: 8 days
Procedure: Immunoblotting: Protein expression of SREBP-1, PPARγ, and C/EBPα relative to 3-actin was assessed by Western Blot. Total proteins were isolated from 3T3-L1 cells treated with compounds or vehicles for 8 days. The cells were washed twice with PBS, lysed in a HEPES-Tx-PI buffer (910 mM HEPES, 5 mM EDTA, 350 mM Sucrose, 1 μg/ml leupeptin, 1 μg/ml pepstatin, 1% Triton-X, 1 mM PMSF), processed with 25G needles and centrifuged at 12,000 rpm for 5 min. Protein concentration was determined using the Micro BCA Protein Assay Kit (Fisher Scientific, Pittsburgh, Pa., USA) following the manufacturers instructions. 25 μg proteins were loaded and separated by electrophoresis using the BioRad Electrophoretic System (65 V for 7 hour). The proteins were then transferred to nitrocellulose membranes at 40 V overnight. The membrane was blocked for 1 hour at room temperature in 5% nonfat milk in Tris-buffered saline (TBS), then washed with Tween-20-TBS (TTBS, 0.1% Tween-20) three times (15 min, 5 min, 5 min), followed by incubation with primary antibodies SREBP-1 (dilution 1:200), PPARγ (dilution 1:200), C/EBPα (dilution 1:200) (all purchased from Santa Cruz Biotechnology, Santa Cruz, Calif., USA) and 3-actin (dilution 1:1000, Sigma-Aldrich, St. Louis, Mo., USA) at room temperature for 2 hours. […]

[5] = Serum triglyceride assay in mice; assay type: in vivo, mouse
Procedure: Six mice per subgroup were obtained finally.
Serum glucose, triglyceride, cholesterol assay: Blood samples from each mouse were collected and serum was separated by centrifugation for the measurement of levels of glucose, triglyceride and total cholesterol. Serum glucose concentrations were analyzed using Glucose (HK) Assay Kit (Sigma-aldrich, Saint Louis, Mo., USA). Serum triglyceride concentrations were analyzed using Serum Triglyceride Determination Kit (Sigma-aldrich, Saint Louis, Mo., USA). Serum cholesterol concentrations were analyzed using Amplex® Red Cholesterol Assay Kit (Invitrogen, Carlsbad, Calif., USA). All experimental assays were done according to the manufacturer's instructions.

Structure (SMILES): COc1ccc2cc3[n+](cc2c1OC)CCc1cc2c(cc1-3)OCO2.[Cl-] [berberine, Berberine (Chloride Form)]
- decrease of FAS mRNA expression vs risperidone treated group [1]: 85.5%
- reduction of PPARγ mRNA expression vs control treated group ([2]; 0.75 mg/kg/day): 56.1%
- reduction of PPARγ mRNA expression vs control treated group ([2]; 1.5 mg/kg/day): 57.7%
- reduction of PPARγ mRNA expression vs control treated group ([2]; 3 mg/kg/day): 78.3%
- GATA-2 protein expression [3]: increase
- decrease of PPARγ protein expression vs clozapine treated group ([4]; 8 μM berberine + 15 μM clozapine): 76%
- decrease of PPARγ protein expression vs risperidone treated group ([4]; 8 μM berberine + 50 μM risperidone): 85.7%
- reduction of serum triglyceride level vs control treated group ([5]; FD mice, 0.75 mg/kg/day): 31.2%
- serum triglyceride level ([5]; FD mice, 0.75 mg/kg/day, 36 days (control 135.6±17.0)): 93.2 ± 20.8 mg/dL
- reduction of serum triglyceride level vs control treated group ([5]; FD mice, 1.5 mg/kg/day): 25.2%
- serum triglyceride level ([5]; FD mice, 1.5 mg/kg/day, 36 days): 101.4 ± 9.7 mg/dL
- reduction of serum triglyceride level vs control treated group ([5]; FD mice, 3 mg/kg/day): 37.8%
- serum triglyceride level ([5]; FD mice, 3 mg/kg/day, 36 days): 84.3 ± 18 mg/dL
- serum triglyceride level ([5]; ND mice, 3 mg/kg/day (control 70.7±14)): 70.7 ± 12.8 mg/dL
